Results taken from ChEMBL document CHEMBL3217526, “Bioguided discovery and pharmacophore modeling of the mycotoxic indole diterpene alkaloids penitrems as breast cancer proliferation, migration, and invasion inhibitors” (Medchemcomm, 2013).
The source made the active and inactive calls. No cut-off for these calls is given here.

What was measured:
Caenorhabditis elegans [1] = test: Toxicity in L1 stage Caenorhabditis elegans N2 assessed as viability and reproduction at 10 uM; format: organism-based; conditions: in vivo
MDA-MB-231 [2] = test: Antiproliferative activity against human MDA-MB-231 cells after 72 hrs by MTT assay; format: functional, cell-based; conditions: MDA-MB-231, 72 h
MCF7 = test: Antiproliferative activity against human MCF7 cells after 72 hrs by MTT assay; format: functional, cell-based; conditions: MCF7, 72 h
Caenorhabditis elegans [3] = test: Toxicity in L1 stage Caenorhabditis elegans N2 assessed as viability and reproduction at 50 uM; format: organism-based; conditions: in vivo
MDA-MB-231 [4] = test: Antimigratory activity in human MDA-MB-231 cells after 24 hrs by wound healing assay; format: functional, cell-based; conditions: MDA-MB-231, 24 h
Caenorhabditis elegans [5] = test: In vivo inhibition of BK channel in L1 stage Caenorhabditis elegans N2 assessed as increase in reversals at 1 uM; format: organism-based
MDA-MB-231 [6] = test: Antiinvasive activity against human MDA-MB-231 cells assessed as inhibition of cell invasion at 15 uM after 24 hrs by BME Cell invasion assay kit; format: functional

| Structure (SMILES) | Activity (Caenorhabditis elegans [1]) | IC50 (MDA-MB-231 [2]) | IC50 (MCF7) | Activity (Caenorhabditis elegans [3]) | IC50 (MDA-MB-231 [4]) | Activity (Caenorhabditis elegans [5]) | inhibition at 15 µM (MDA-MB-231 [6]; MDA-MB-231, 24 h) | inhibition (MDA-MB-231 [6]) |
| --- | --- | --- | --- | --- | --- | --- | --- | --- |
| C=C1Cc2c(Br)cc3[nH]c4c5c3c2[C@H]2[C@@H]1C[C@@H]2C(C)(C)O[C@H]5[C@@H]1CC[C@@]2(O)[C@@]35O[C@@H]3[C@@H](O)[C@@H](C(=C)C)O[C@H]5CC[C@]2(C)[C@]41C | Non-toxic | 18.8 µM | 19.3 µM | Non-toxic | 30.3 µM |  |  |  |
| C=C(C)[C@H]1O[C@H]2CC[C@@]3(C)[C@@](O)(CC[C@H]4[C@@H]5OC(C)(C)[C@H]6C[C@@H]7C(=C)Cc8c(Br)cc9[nH]c(c5c9c8[C@@]76O)[C@@]43C)[C@]23O[C@@H]3[C@H]1O | Non-toxic | 8.5 µM | 16.7 µM | Non-toxic | 9.6 µM | Toxic |  |  |
| CC(C)=CCC[C@]1(C)[C@@H](O)CC[C@@]2(C)[C@H]1CC[C@H]1Cc3c([nH]c4ccccc34)[C@@]12C [EMINDOLE SB] | Non-toxic | 21.3 µM | 10.1 µM | Non-toxic | 19 µM | Non-toxic |  |  |
| CC(C)(O)[C@@H]1CC[C@]2(C)[C@H](CC[C@@]3(C)[C@H]2CC[C@H]2Cc4c([nH]c5ccccc45)[C@@]23C)O1 [PASPALINE] | Non-toxic | 12.4 µM | 12.8 µM | Non-toxic | 7.6 µM |  |  |  |
| C=C(C)[C@H]1O[C@H]2CC[C@@]3(C)[C@@](O)(CC[C@H]4[C@@H]5OC(C)(C)[C@H]6C[C@@H]7C(=C)Cc8c(Cl)cc9[nH]c(c5c9c8[C@@]76O)[C@@]43C)[C@]23O[C@@H]3[C@H]1O [PENITREM A] | Non-toxic |  |  | Non-toxic |  | Toxic |  |  |
| C=C1Cc2ccc3[nH]c4c5c3c2[C@H]2[C@@H]1C[C@H]2C(C)(C)O[C@H]5[C@@H]1CC[C@@]2(O)C3=C[C@@H](O)[C@@H](C(=C)C)O[C@H]3CC[C@]2(C)[C@@]41C [PENITREM D] | Non-toxic | 29.7 µM | 8.3 µM | Non-toxic | 9.2 µM |  | 50% |  |
| C=C1Cc2c(Cl)cc3[nH]c4c5c3c2[C@H]2[C@@H]1C[C@@H]2C(C)(C)O[C@H]5[C@@H]1CC[C@@]2(O)[C@@]35O[C@@H]3[C@@H](O)[C@@H](C(=C)C)O[C@H]5CC[C@]2(C)[C@@]41C [PENITREM F] | Non-toxic | 13.8 µM | 15 µM | Non-toxic | 35 µM |  |  | inactive |
